According to paper PMC11539244, “Relative inhibitory activities of newly developed diazabicyclooctanes, boronic acid derivatives, and penicillin-based sulfone β-lactamase inhibitors against broad-spectrum AmpC β-lactamases” (Antimicrobial Agents and Chemotherapy, 2024):
Read-outs that look alike come from different tables or passages of the source.

Columns and labels:
MOX-2 = MOX-2 (Aeromonas caviae, UniProt Q9L3G2); test: IC50 of β-lactamase inhibitors, crude extract, MOX-2; type: biochemical
LAT-1 = LAT-1 (Citrobacter portucalensis, UniProt Q48443); test: biochemical
PDC-1 = molecular target: T1, PDC-1 (Pseudomonas aeruginosa, UniProt P24735); test: biochemical; parameters: species or system P. aeruginosa
T1 construct: made in house; host or cells: E. coli TOP10, plasmid pUCp24

ADC-50 = ADC-50 (Acinetobacter baumannii, UniProt Q6DRA1); test: IC50 of β-lactamase inhibitors, crude extract, ADC-50; type: biochemical, A. baumannii
DHA-1 = DHA-1 (Morganella morganii, UniProt P94958); test: IC50 of β-lactamase inhibitors, crude extract, DHA-1; type: biochemical
MIR-17 = test: IC50 of β-lactamase inhibitors, crude extract, MIR-17; type: biochemical, Enterobacter roggenkampii; conditions: crude extract of E. coli TOP10 recombinant strain, mean of triplicate
ACT-17 = ACT-17 (Enterobacter asburiae, UniProt P05364); type: biochemical; conditions: crude extract of E. coli TOP10 recombinant strain, mean of triplicate
ACC-1 = ACC-1 (Hafnia alvei, UniProt Q9XB24); test: IC50 of β-lactamase inhibitors, crude extract, ACC-1; type: biochemical
SRT-1 = SRT-1 (Serratia marcescens, UniProt P18539); test: IC50 of β-lactamase inhibitors, crude extract, SRT-1; type: biochemical; conditions: crude extract of E. coli TOP10 recombinant strain, mean of triplicate
CMY-42 = molecular target: T2, CMY-42 (Klebsiella pneumoniae, UniProt Q48434, V231S); test: biochemical; parameters: species or system Citrobacter spp.
T2 construct: made in house; host or cells: E. coli TOP10, plasmid pUCp24

Ear-1 = Ear-1 (Klebsiella aerogenes, UniProt A0A0H3FRQ3); test: IC50 of β-lactamase inhibitors, crude extract, Ear-1; type: biochemical
PDC-382 = PDC-382 (Pseudomonas aeruginosa, UniProt P24735, T96I); test: biochemical; parameters: species or system P. aeruginosa
FOX-5 = FOX-5 (Aeromonas allosaccharophila, UniProt Q9F4K3); test: IC50 of β-lactamase inhibitors, crude extract, FOX-5; type: biochemical
CMY-2 = molecular target: T3, CMY-2 (Klebsiella pneumoniae, UniProt Q48434); test: biochemical; parameters: species or system Citrobacter spp.
T3 construct: made in house; host or cells: E. coli TOP10, plasmid pUCp24

PDC-5 = molecular target: T4, PDC-5 (Pseudomonas aeruginosa, UniProt P24735, R79Q/T105A); test: biochemical; parameters: species or system P. aeruginosa
T4 construct: made in house; host or cells: E. coli TOP10, plasmid pUCp24

ACT-7 = ACT-7 (Enterobacter asburiae, UniProt B6V6L3); test: biochemical
YRC-1 = YRC-1 (Yersinia ruckeri, UniProt Q20I87); test: IC50 of β-lactamase inhibitors, crude extract, YRC-1; type: biochemical
[1] = test system: E. coli ADC-50 (E. coli TOP10 recombinant strain); test: microbe, parasite or virus in culture; type: cell-based, Escherichia coli; conditions: ADC-50 (cAmpC of A. baumannii); susceptibility testing of recombinant E. coli
Procedure: (§1) In order to assess the relative inhibitory activities of those BLI against AmpC β-lactamases, the corresponding blaampC genes without the original promoter sequences were amplified by PCR with specific primers, and corresponding amplicons were cloned into plasmid pUCp24, as described previously ([12], [13]). […] Cultures of E. coli TOP10 harboring recombinant plasmids and therefore producing the different AmpC tested were grown overnight at 37°C in Luria-Bertani agar medium containing amoxicillin (AMX) (50 µg/mL). The activity of the following acquired class C β-lactamases could therefore be evaluated, namely, ACC-1 (originally from Hafnia spp.), FOX-5 (from Aeromonas allosaccharophila), CMY-2 and CMY-42 (from Citrobacter spp.), DHA-1 (from Morganella morganii), ACT-7 and ACT-17 (from Enterobacter asburiae), MIR-17 (from Enterobacter roggenkampii), MOX-2 (from Aeromonas caviae), and LAT-1 (from Citrobacter portucalensis) ([5]). […] Altogether, these enzymes were chosen as representatives of clinically relevant class C β-lactamases being sources of intrinsic or acquired resistance to broad-spectrum β-lactams among most of the commonly identified Gram-negative bacteria in clinical practice.
(§2) MICs were determined in triplicate by broth microdilution (BMD) for CAZ and AMX, as well as their combinations with each β-lactamase inhibitor. CAZ, AMX, and CLA were purchased from Sigma-Aldrich (St. Louis, MO, USA). All others inhibitors (TAZ HY-W009168, AVI HY-14879, REL HY-16752, VAB HY-19930, NAC HY-109008, ZID HY-120859, TAN HY-109124, XER HY-136072, DUR HY-117974, EMT HY-103095) were purchased from MedChem Express (Luzern, Switzerland). The concentration of each β-lactamase inhibitor was chosen as the concentration used in the respective BL/BLI combination under development or commercially available, according to EUCAST or CLSI ([18], [19]). […] BMD assays were performed in cation-adjusted Mueller-Hinton (MH) broth (Bio-Rad, Marnes-la-Coquette, France) for all antibiotics or antibiotic combinations listed above, according to the EUCAST guidelines ([20]).

E. coli TOP10 = test: microbe, parasite or virus in culture; type: cell-based; conditions: Escherichia coli, TOP10; E. coli TOP 10; β-lactamase inhibitor alone; read-out: MIC values of inhibitor alone
Procedure: as §1, §2

[2] = MOX-2, crude extract of E. coli TOP10 recombinant strain, mean of triplicate, read-out: IC50
[3] = LAT-1, crude extract of E. coli TOP10 recombinant strain, mean of triplicate, read-out: IC50
[4] = PDC-1, crude extract of E. coli TOP10 recombinant strain, mean of triplicate, read-out: IC50
[5] = ADC-50, crude extract of E. coli TOP10 recombinant strain, mean of triplicate, read-out: IC50
[6] = DHA-1, crude extract of E. coli TOP10 recombinant strain, mean of triplicate, read-out: IC50
[7] = ACC-1, crude extract of E. coli TOP10 recombinant strain, mean of triplicate, read-out: IC50
[8] = CMY-42, crude extract of E. coli TOP10 recombinant strain, mean of triplicate, read-out: IC50
[9] = Ear-1, crude extract of E. coli TOP10 recombinant strain, mean of triplicate, read-out: IC50
[10] = PDC-382, crude extract of E. coli TOP10 recombinant strain, mean of triplicate, read-out: IC50
[11] = FOX-5, crude extract of E. coli TOP10 recombinant strain, mean of triplicate, read-out: IC50
[12] = PDC-5, crude extract of E. coli TOP10 recombinant strain, mean of triplicate, read-out: IC50
[13] = ACT-7, crude extract of E. coli TOP10 recombinant strain, mean of triplicate, read-out: IC50
[14] = YRC-1, crude extract of E. coli TOP10 recombinant strain, mean of triplicate, read-out: IC50
[15] = ADC-50, crude extract of E. coli TOP10 recombinant strain, mean of triplicate

Ear-1, sequence (A0A0H3FRQ3 entry or part of it): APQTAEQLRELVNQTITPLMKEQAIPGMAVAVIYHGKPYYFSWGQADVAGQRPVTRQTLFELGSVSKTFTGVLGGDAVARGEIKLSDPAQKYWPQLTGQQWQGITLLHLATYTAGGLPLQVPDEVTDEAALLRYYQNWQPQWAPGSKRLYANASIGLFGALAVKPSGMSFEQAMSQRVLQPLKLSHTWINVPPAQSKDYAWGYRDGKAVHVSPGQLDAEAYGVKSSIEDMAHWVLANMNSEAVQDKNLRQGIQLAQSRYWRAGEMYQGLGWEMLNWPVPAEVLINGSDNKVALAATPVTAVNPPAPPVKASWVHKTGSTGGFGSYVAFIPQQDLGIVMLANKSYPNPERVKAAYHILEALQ
YRC-1, sequence (Q20I87 entry or part of it): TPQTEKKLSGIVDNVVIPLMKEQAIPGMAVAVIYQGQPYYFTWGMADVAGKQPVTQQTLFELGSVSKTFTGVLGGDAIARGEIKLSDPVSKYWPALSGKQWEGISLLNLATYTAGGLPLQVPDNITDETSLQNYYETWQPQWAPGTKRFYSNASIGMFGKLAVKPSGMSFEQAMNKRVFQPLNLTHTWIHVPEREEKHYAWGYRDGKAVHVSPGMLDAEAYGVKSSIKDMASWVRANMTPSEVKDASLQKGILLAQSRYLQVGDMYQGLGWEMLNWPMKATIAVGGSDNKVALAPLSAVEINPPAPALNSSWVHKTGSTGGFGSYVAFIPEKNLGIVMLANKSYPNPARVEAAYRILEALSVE
SRT-1, sequence (P18539 22-376): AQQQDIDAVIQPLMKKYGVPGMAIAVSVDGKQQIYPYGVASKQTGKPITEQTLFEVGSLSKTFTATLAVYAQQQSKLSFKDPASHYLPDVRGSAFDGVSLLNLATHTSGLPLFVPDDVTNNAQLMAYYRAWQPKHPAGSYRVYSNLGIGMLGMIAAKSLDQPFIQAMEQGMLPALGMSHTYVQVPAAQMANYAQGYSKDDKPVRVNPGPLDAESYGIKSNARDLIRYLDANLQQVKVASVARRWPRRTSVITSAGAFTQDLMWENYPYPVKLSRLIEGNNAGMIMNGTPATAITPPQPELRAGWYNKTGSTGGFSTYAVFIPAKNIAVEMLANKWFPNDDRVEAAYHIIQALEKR
T3 sequence (Q48434 21-381): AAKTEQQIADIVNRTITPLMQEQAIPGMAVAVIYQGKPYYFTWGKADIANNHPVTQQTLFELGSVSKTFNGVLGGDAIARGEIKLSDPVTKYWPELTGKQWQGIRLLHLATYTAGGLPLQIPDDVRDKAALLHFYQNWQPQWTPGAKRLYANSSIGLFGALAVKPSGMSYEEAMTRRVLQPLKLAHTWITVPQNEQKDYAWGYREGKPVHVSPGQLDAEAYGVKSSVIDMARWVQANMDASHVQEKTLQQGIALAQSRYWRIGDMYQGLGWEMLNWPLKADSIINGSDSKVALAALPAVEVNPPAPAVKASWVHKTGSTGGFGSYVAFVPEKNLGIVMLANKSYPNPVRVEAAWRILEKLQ
FOX-5, sequence (Q9F4K3 entry or part of it): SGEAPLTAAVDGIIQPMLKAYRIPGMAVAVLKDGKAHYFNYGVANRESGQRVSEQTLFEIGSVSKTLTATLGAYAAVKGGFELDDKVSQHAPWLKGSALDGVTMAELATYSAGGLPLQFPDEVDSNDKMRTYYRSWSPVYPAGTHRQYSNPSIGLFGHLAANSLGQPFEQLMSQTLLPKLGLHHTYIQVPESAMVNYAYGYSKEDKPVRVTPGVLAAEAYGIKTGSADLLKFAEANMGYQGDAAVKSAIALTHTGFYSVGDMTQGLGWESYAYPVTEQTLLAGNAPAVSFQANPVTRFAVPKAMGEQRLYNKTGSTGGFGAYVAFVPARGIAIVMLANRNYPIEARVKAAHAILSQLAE
LAT-1, sequence (Q48443 entry or part of it): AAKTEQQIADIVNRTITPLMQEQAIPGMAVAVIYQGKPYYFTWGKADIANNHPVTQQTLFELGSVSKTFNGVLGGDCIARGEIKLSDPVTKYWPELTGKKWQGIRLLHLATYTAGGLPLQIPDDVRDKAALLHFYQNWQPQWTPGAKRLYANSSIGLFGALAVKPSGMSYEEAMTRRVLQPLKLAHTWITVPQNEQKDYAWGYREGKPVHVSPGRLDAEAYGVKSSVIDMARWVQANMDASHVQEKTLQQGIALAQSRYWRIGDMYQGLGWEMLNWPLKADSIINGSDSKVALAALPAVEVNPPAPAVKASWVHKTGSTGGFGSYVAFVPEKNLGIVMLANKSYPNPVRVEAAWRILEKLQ
T4 sequence (P24735 27-397 R79Q/T105A): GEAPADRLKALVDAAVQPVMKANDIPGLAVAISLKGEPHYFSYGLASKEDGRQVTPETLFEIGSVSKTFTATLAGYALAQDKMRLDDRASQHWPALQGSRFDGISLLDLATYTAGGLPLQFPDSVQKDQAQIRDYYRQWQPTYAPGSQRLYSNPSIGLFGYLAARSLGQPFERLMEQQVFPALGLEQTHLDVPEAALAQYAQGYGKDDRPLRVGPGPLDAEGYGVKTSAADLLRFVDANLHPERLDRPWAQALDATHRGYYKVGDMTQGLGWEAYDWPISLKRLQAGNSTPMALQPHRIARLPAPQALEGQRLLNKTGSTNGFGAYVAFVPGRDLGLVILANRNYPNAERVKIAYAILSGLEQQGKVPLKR
T1 sequence (P24735 27-397): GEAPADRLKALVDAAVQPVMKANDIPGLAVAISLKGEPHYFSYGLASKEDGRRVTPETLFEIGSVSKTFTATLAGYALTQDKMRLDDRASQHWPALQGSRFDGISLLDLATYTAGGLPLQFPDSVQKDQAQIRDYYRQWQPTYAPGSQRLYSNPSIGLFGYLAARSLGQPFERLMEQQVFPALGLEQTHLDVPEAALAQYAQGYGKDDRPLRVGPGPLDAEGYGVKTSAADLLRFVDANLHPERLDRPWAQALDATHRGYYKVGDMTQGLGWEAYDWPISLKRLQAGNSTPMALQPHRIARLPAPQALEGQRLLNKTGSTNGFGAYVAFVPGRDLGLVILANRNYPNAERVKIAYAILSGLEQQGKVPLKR
MOX-2, sequence (Q9L3G2 entry or part of it): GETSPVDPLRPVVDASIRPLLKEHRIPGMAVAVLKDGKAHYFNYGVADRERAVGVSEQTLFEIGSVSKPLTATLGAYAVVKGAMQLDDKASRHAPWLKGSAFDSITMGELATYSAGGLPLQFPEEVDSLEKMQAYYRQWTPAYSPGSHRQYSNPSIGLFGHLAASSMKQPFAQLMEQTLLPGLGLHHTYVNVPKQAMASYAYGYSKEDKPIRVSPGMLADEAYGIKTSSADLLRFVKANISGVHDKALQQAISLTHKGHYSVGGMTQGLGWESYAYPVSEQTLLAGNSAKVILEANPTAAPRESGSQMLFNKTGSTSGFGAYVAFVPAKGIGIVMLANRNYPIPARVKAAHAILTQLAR
ACT-17, sequence (P05364 21-381): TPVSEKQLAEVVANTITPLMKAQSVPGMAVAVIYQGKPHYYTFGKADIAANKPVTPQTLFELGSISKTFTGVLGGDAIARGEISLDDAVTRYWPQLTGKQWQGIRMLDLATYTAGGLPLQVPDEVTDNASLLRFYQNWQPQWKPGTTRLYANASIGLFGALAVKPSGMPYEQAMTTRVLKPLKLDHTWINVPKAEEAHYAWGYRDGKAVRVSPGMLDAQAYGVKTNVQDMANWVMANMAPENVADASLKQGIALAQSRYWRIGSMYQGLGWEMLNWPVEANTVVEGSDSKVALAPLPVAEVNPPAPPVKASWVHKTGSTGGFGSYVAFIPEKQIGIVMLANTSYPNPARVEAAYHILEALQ
PDC-382, sequence (P24735 27-397 T96I): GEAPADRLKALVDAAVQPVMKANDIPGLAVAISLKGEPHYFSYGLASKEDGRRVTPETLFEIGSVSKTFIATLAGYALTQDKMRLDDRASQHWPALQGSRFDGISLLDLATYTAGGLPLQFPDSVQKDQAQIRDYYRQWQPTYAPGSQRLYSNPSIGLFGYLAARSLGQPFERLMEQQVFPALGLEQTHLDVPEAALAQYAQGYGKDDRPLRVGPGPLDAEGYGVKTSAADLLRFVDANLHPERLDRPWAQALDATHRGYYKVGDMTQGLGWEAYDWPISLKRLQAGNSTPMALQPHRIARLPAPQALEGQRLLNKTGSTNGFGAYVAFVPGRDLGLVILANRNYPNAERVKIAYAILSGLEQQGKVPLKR
T2 sequence (Q48434 21-381 V231S): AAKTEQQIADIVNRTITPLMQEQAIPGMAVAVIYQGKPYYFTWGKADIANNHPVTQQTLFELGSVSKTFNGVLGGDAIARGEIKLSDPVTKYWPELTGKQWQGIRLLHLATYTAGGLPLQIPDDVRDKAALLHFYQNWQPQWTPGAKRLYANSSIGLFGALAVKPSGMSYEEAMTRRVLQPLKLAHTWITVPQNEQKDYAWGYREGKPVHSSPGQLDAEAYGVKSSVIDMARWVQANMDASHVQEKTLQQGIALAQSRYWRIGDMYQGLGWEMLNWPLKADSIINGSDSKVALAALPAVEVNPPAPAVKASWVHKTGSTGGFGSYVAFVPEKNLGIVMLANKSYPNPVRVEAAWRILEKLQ
ACC-1, sequence (Q9XB24 entry or part of it): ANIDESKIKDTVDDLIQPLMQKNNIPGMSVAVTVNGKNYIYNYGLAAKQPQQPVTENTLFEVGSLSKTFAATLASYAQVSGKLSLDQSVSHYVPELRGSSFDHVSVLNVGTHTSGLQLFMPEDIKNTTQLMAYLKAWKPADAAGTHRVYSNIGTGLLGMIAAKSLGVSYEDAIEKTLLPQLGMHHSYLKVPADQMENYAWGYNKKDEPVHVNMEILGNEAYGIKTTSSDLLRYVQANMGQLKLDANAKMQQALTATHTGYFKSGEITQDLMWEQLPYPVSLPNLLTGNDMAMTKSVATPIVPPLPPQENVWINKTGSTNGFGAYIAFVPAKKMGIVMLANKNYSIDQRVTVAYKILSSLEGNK

SMILES | inhibition of ADC-50 (in words) (ADC-50; ADC-50 of A. baumannii) | IC50 (MIR-17) [nM] | IC50 (MOX-2) [nM] | IC50 (LAT-1) [nM] | IC50 (PDC-1) [nM] | IC50 (ADC-50; [15]) [nM] | IC50 (DHA-1) [nM] | IC50 (ACC-1) [nM] | IC50 (SRT-1) [nM] | IC50 (CMY-42) [nM] | IC50 (Ear-1) [nM] | IC50 (PDC-382) [nM] | IC50 (FOX-5) [nM] | IC50 (CMY-2) [nM] | IC50 (PDC-5) [nM] | IC50 (ACT-7) [nM] | IC50 (YRC-1) [nM] | IC50 (ACT-17) [nM] | MIC (E. coli TOP10) [µg/mL] | further results
Cn1cc[n+](C[C@@]2(C)[C@H](C(=O)[O-])N3C(=O)C[C@H]3S2(=O)=O)n1 [Enmetazobactam, enmetazobactam] | not significantly inhibited | > 100000 |  |  |  |  |  |  |  |  |  |  |  |  |  |  |  |  |  | IC50 (MOX-2; [2]): > 100000 nM; IC50 (LAT-1; [3]): 97000 nM; IC50 (PDC-1; [4]): > 100000 nM; IC50 (ADC-50; [5]): > 100000 nM; IC50 (DHA-1; [6]): 26000 nM; IC50 (ACT-17; read-out: IC50): 62000 nM; IC50 (ACC-1; [7]): 39000 nM; IC50 (SRT-1; read-out: IC50): > 100000 nM; IC50 (CMY-42; [8]): 64000 nM; IC50 (Ear-1; [9]): 91000 nM; IC50 (PDC-382; [10]): > 100000 nM; IC50 (FOX-5; [11]): > 100000 nM; IC50 (CMY-2; CMY-2, crude extract of E. coli TOP10 recombinant strain, mean of triplicate, read-out: IC50): 40000 nM; IC50 (PDC-5; [12]): > 100000 nM; IC50 (ACT-7; [13]): 43000 nM; IC50 (YRC-1; [14]): > 100000 nM
O=C(O)[C@H]1/C(=C/CO)O[C@@H]2CC(=O)N21 [Clavulanic acid, clavulanic acid] |  | > 100000 | > 100000 | > 100000 | > 100000 | > 100000 | > 100000 | > 100000 | > 100000 | > 100000 | > 100000 | > 100000 | > 100000 | > 100000 | > 100000 | > 100000 | > 100000 |  |  | 
NCCN[C@H]1CC[C@H](CC(=O)N[C@H]2Cc3cccc(C(=O)O)c3OB2O)CC1 [Taniborbactam, taniborbactam] | not significantly inhibited | 30 |  |  |  |  |  |  |  |  |  |  |  |  |  |  |  |  |  | IC50 (MOX-2; [2]): 320 nM; IC50 (LAT-1; [3]): 230 nM; IC50 (PDC-1; [4]): 1100 nM; IC50 (ADC-50; [5]): 26000 nM; sensitivity of ADC-50 β-lactamase to inhibitor (in words) [1]: resistant; IC50 (DHA-1; [6]): 120 nM; IC50 (ACT-17; read-out: IC50): 210 nM; IC50 (ACC-1; [7]): 180 nM; IC50 (SRT-1; read-out: IC50): 60 nM; IC50 (CMY-42; [8]): 680 nM; IC50 (Ear-1; [9]): 110 nM; IC50 (PDC-382; [10]): 5000 nM; IC50 (FOX-5; [11]): 160 nM; IC50 (PDC-5; [12]): 510 nM; IC50 (ACT-7; [13]): 190 nM; IC50 (YRC-1; [14]): 100 nM
O=C(O)C[C@@H]1CC[C@H](NC(=O)Cc2cccs2)B(O)O1 [Vaborbactam, vaborbactam] | not significantly inhibited | 1100 | 1900 | 1200 | 11000 | > 100000 | 3100 | 3600 | 6900 | 13000 | 840 | 54000 | 17000 | 5300 | 37000 | 3600 | 2000 | 2600 |  | 
O=C(NC1CCNCC1)[C@@H]1CC[C@@H]2CN1C(=O)N2OS(=O)(=O)O [Relebactam, relebactam] |  | 1300 | 2400 | 230 |  | 13000 | 850 | 580 | 37000 | 1100 | 890 |  | 2000 | 590 |  | 710 | 1900 | 330 |  | IC50 (ADC-50; ADC-50, crude extract of E. coli TOP10 recombinant strain, mean of triplicate, listed as REL): > 13000 nM
NCCONC(=O)[C@@H]1CC[C@@H]2CN1C(=O)N2OS(=O)(=O)O [Nacubactam, nacubactam] | not significantly inhibited | 600 | 4100 | 290 | 5100 | > 100000 | 500 | 450 | 70000 | 1700 | 280 | 34000 | 5300 | 420 | 1200 | 370 | 130 | 290 | 4 | 
C[C@]1(Cn2ccnn2)[C@H](C(=O)O)N2C(=O)C[C@H]2S1(=O)=O [Tazobactam, tazobactam] |  | 83000 | > 100000 | 7300 |  | > 100000 | 1300 | 2100 | 48000 | 24000 | 72000 |  | 23000 | 20000 |  | 23000 | > 100000 |  |  | 
NC(=O)[C@@H]1CC[C@@H]2CN1C(=O)N2OS(=O)(=O)O [Avibactam, avibactam] |  | 1000 | 5600 | 400 |  | 61000 | 110 | 250 | 6700 | 650 | 880 |  | 1000 | 610 |  | 800 | 2100 | 900 |  | IC50 (ADC-50; ADC-50, crude extract of E. coli TOP10 recombinant strain, mean of triplicate, listed as AVI): > 13000 nM
O=C(NNC(=O)[C@@H]1CC[C@@H]2CN1C(=O)N2OS(=O)(=O)O)[C@@H]1CCCNC1 [Zidebactam, zidebactam] |  | 110 | 2700 | 5 |  | 5500 | 60 | 90 | 37000 | 170 | 120 |  | 990 | 120 |  | 120 | 90 | 140 | 0.125 | IC50 (ADC-50; ADC-50, crude extract of E. coli TOP10 recombinant strain, mean of triplicate, listed as ZID): 5000 nM
CC1=C[C@@H]2CN(C(=O)N2OS(=O)(=O)O)[C@@H]1C(N)=O [Durlobactam, durlobactam] |  | 5 | 55 | 5 | 9 | 170 | 4 | 5 | 22 | 11 | 6 | 100 | 22 | 4 | 13 | 4 | 5 | 3 | 0.125 | IC50 (ADC-50; read-out: IC50 value, ADC-50 of A. baumannii): 0.17 nM
